pIC50: −log10 of the molar value. Where two headings read alike, the source gives them in different places.
Tested on: p-ERK in PNAC-1/HPAC cell
Experiment: Phospho-ERK 1/2 assay (Table 1)
Format: cell-based
Conditions: Homo sapiens
Protocol: Allow PNAC-1/HPAC cell growth in a T75 flask in DMEM and 10% 1 fetal calf serum (FCS; Gibco), using standard tissue culture procedures until ˜80% confluency is achieved. Day 1, seed 6000 cells/well in 384 well plate and incubate at 37° C., 5% CO2. Add diluted compound by Echo 550, final DMSO is 0.5%, incubate cells at 37° C., 5% CO2 for 3 hours. Then, remove medium and fix cells with 3.7% formaldehyde in PBS (PFA) by Apricot. Wash with PBS once. Permeabilize cells with cold 100% methanol and repeat wash once with PBS once. Add Li-Cor blocking buffer to each well and incubate 1.5 hours at RT. Remove blocking buffer and add primary antibody mixture (rabbit anti pERK, mouse anti GAPDH). Incubate at 4° C. overnight. Day 2, wash with PBST (Tween-20 in PBS) with total 3 times and then add secondary antibody mixture (goat anti rabbit 800CW (1:800 dilution in the combined solution) and goat anti mouse 680RD (1:800 dilution in the combined solution)), incubate for 60 minutes at RT away from light. Repeat washing with PBST 3 times. After final wash, centrifuge plate up-side-down at 1000 rpm to remove wash solution completely from wells. Before plate scanning, clean the bottom plate surface and the Odyssey* Imager scanning bed (if applicable) with moist, lint-free tissue to avoid any obstructions during scanning. Scan plate with detection in both 700 and 800 nm channels.

[1] = PNAC-1/HPAC cell, 3 hours compound incubation, read-out: p-ERK IC50

Structure (SMILES) | pIC50 [1] | pIC50 (HPAC, 3 h, read-out: p-ERK IC50, PNAC-1/HPAC cell, 3 hours compound incubation)
C#Cc1c(F)ccc2cccc(-c3nc4c5c(nc(OCC6(CN7C8CCC7COC8)CC6)nc5c3F)N3CC5CCC(N5)[C@H]3CO4)c12 (stereo in doubt) [Compound 49, (5aS,6R,9S)-12-((1-((3-oxa-8-azabicyclo[3.2.1]octan-8-yl)methyl)cyclopropyl)methoxy)-2-(8-ethynyl-7-fluoronaphthalen-1-yl)-1-fluoro-5a,6,7,8,9,10-hexahydro-5H-4-oxa-3,10a,11,13,14-pentaaza-6,9-methanonaphtho[1,8-ab]heptalene] | 6.07 | 
C#Cc1c(F)ccc2cccc(-c3nc4c5c(nc(OCC67CCCN6C(COC(=O)N(C)C)CC7)nc5c3F)N3CC5CCC(N5)[C@H]3CO4)c12 (stereo in doubt) [Compound 37, (7a-((((5aS,6R,9S)-2-(8-ethynyl-7-fluoronaphthalen-1-yl)-1-fluoro-5a,6,7,8,9,10-hexahydro-5H-4-oxa-3,10a,11,13,14-pentaaza-6,9-methanonaphtho[1,8-ab]heptalen-12-yl)oxy)methyl)hexahydro-1H-pyrrolizin-3-yl)methyl dimethylcarbamate] |  | 7.30
Oc1cc(-c2nc3c4c(nc(OCC56CCCN5CCC6)nc4c2F)N2C[C@@H]4CC[C@@H](N4)C2CO3)c2c(Cl)cccc2c1 (stereo partly drawn) [Compound 2, 5-chloro-4-((6R,9S)-1-fluoro-12-((tetrahydro-1H-pyrrolizin-7a(5H)-yl)methoxy)-5a,6,7,8,9,10-hexahydro-5H-4-oxa-3,10a,11,13,14-pentaaza-6,9-methanonaphtho[1,8-ab]heptalen-2-yl)naphthalen-2-ol] | 6.14 | 
C#Cc1cccc2cc(O)cc(-c3nc4c5c(nc(OC[C@@]67CCCN6C[C@H](F)C7)nc5c3F)N3C[C@H]5CC[C@H](N5)[C@H]3CO4)c12 [Compound 31, 5-ethynyl-4-((5aS,6S,9R)-1-fluoro-12-(((2R,7aS)-2-fluorotetrahydro-1H-pyrrolizin-7a(5H)-yl)methoxy)-5a,6,7,8,9,10-hexahydro-5H-4-oxa-3,10a,11,13,14-pentaaza-6,9-methanonaphtho[1,8-ab]heptalen-2-yl)naphthalen-2-ol] | 8.10 | 
C#Cc1c(F)ccc2cccc(-c3nc4c5c(nc(OCC67CCCN6C(COC(=O)N6CCOCC6)CC7)nc5c3F)N3CC5CCC(N5)[C@H]3CO4)c12 (stereo in doubt) [Compound 47, (7a-((((5aS,6R,9S)-2-(8-ethynyl-7-fluoronaphthalen-1-yl)-1-fluoro-5a,6,7,8,9,10-hexahydro-5H-4-oxa-3,10a,11,13,14-pentaaza-6,9-methanonaphtho[1,8-ab]heptalen-12-yl)oxy)methyl)hexahydro-1H-pyrrolizin-3-yl)methyl morpholine-4-carboxylate] | 6.98 | 
Oc1cc(-c2nc3c4c(nc(OC[C@@]56CCCN5C[C@H](F)C6)nc4c2F)N2C[C@@H]4CC[C@@H](N4)C2CO3)c2c(Cl)cccc2c1 (stereo partly drawn) [Compound 1, 5-Chloro-4-((6R,9S)-1-fluoro-12-(((2R,7aS)-2-fluorotetrahydro-1H-pyrrolizin-7a(5H)-yl)methoxy)-5a,6,7,8,9,10-hexahydro-5H-4-oxa-3,10a,11,13,14-pentaaza-6,9-methanonaphtho[1,8-ab]heptalen-2-yl)naphthalen-2-ol] | 7.48 | 
CCc1c(F)ccc2cccc(-c3nc4c5c(nc(OC[C@@]67CCCN6C[C@H](F)C7)nc5c3F)N3C[C@@H]5CC[C@@H](N5)C3CO4)c12 (stereo partly drawn) [Compound 4, (6R,9S)-2-(8-ethyl-7-fluoronaphthalen-1-yl)-1-fluoro-12-(((2R,7aS)-2-fluorotetrahydro-1H-pyrrolizin-7a(5H)-yl)methoxy)-5a,6,7,8,9,10-hexahydro-5H-4-oxa-3,10a,11,13,14-pentaaza-6,9-methanonaphtho[1,8-ab]heptalene] | 6.92 | 
[2H]C#Cc1c(F)ccc2cccc(-c3nc4c5c(nc(OC[C@@]67CCCN6C[C@H](F)C7)nc5c3F)N3CC5CCC(N5)[C@H]3CO4)c12 (stereo in doubt) [Compound 34, (5aS,6R,9S)-2-(8-(ethynyl-d)-7-fluoronaphthalen-1-yl)-1-fluoro-12-(((2R,7aS)-2-fluorotetrahydro-1H-pyrrolizin-7a(5H)-yl)methoxy)-5a,6,7,8,9,10-hexahydro-5H-4-oxa-3,10a,11,13,14-pentaaza-6,9-methanonaphtho[1,8-ab]heptalene] | 8.30 | 
C#Cc1c(F)ccc2cccc(-c3nc4c5c(nc(OCC6(CN7CCOC8(CC8)C7)CC6)nc5c3F)N3CC5CCC(N5)[C@H]3CO4)c12 (stereo in doubt) [Compound 46, (5aS,6R,9S)-12-((1-((4-oxa-7-azaspiro[2.5]octan-7-yl)methyl)cyclopropyl)methoxy)-2-(8-ethynyl-7-fluoronaphthalen-1-yl)-1-fluoro-5a,6,7,8,9,10-hexahydro-5H-4-oxa-3,10a,11,13,14-pentaaza-6,9-methanonaphtho[1,8-ab]heptalene] | 6.48 | 
Oc1cc(-c2nc3c4c(nc(OC[C@@]56CCCN5C[C@H](F)C6)nc4c2F)N2C[C@H]4CC[C@H](N4)[C@H]2CO3)c2cc(F)ccc2c1 [Compound 30, 6-fluoro-4-((5aS,6S,9R)-1-fluoro-12-(((2R,7aS)-2-fluorotetrahydro-1H-pyrrolizin-7a(5H)-yl)methoxy)-5a,6,7,8,9,10-hexahydro-5H-4-oxa-3,10a,11,13,14-pentaaza-6,9-methanonaphtho[1,8-ab]heptalen-2-yl)naphthalen-2-ol] | 7.77 | 
C#Cc1c(F)ccc2cccc(-c3nc4c5c(nc(OCC6(CN7CCO[C@H](C)C7)CC6)nc5c3F)N3C[C@H]5CC[C@H](N5)[C@H]3CO4)c12 [Compound 41, (5aS)-2-(8-ethynyl-7-fluoronaphthalen-1-yl)-1-fluoro-12-((1-(((R)-2-methylmorpholino)methyl)cyclopropyl)methoxy)-5a,6,7,8,9,10-hexahydro-5H-4-oxa-3,10a,11,13,14-pentaaza-6,9-methanonaphtho[1,8-ab]heptalene] | 6.41 | 
Oc1cc(-c2nc3c4c(nc(OC[C@@]56CCCN5C[C@H](F)C6)nc4c2F)N2C[C@@H]4CC[C@@H](N4)C2CO3)c2cc(F)ccc2c1 (stereo partly drawn) [Compound 3, 6-fluoro-4-((6R,9S)-1-fluoro-12-(((2R,7aS)-2-fluorotetrahydro-1H-pyrrolizin-7a(5H)-yl)methoxy)-5a,6,7,8,9,10-hexahydro-5H-4-oxa-3,10a,11,13,14-pentaaza-6,9-methanonaphtho[1,8-ab]heptalen-2-yl)naphthalen-2-ol] | 7.59 | 
C#Cc1c(F)ccc2cccc(-c3nc4c5c(nc(OC[C@@H]6C[C@@H](F)CN6C)nc5c3F)N3CC5CCC(N5)[C@H]3CO4)c12 (stereo in doubt) [Compound 32, (5aS,6R,9S)-2-(8-ethynyl-7-fluoronaphthalen-1-yl)-1-fluoro-12-(((2S,4R)-4-fluoro-1-methylpyrrolidin-2-yl)methoxy)-5a,6,7,8,9,10-hexahydro-5H-4-oxa-3,10a,11,13,14-pentaaza-6,9-methanonaphtho[1,8-ab]heptalene] | 6.85 | 
CCCCCCCCCC(=O)OCOC(=O)N1[C@@H]2CC[C@H]1[C@H]1COc3nc(-c4cc(O)cc5ccc(F)c(CC)c45)c(F)c4nc(OC[C@@]56CCCN5C[C@H](F)C6)nc(c34)N1C2 [Compound 45, (Decanoyloxy)methyl (5aS,6S,9R)-2-(8-ethyl-7-fluoro-3-hydroxynaphthalen-1-yl)-1-fluoro-12-(((2R,7aS)-2-fluorotetrahydro-1H-pyrrolizin-7a(5H)-yl)methoxy)-5a,6,7,8,9,10-hexahydro-5H-4-oxa-3,10a,11,13,14-pentaaza-6,9-methanonaphtho[1,8-ab]heptalene-14-carboxylate] | 8.46 | 

Reference: patent publication US20240376123A1, “KRAS G12D INHIBITORS AND USES THEREOF” (SUZHOU ZANRONG PHARMA LIMITED, priority 2021, published 2024)
